# Measured values from EP3763715A1, “HARRINGTONINES SALTS, IN PARTICULAR RETINOATES, THEIR PROCESS OF PREPARATION AND THEIR USES IN THE TREATMENT OF LEUKEMIAS, CANCERS, AUTOIMMUNE, SKIN, ALZHEIMER'S AND INFLAMMATORY BOWEL DISEASES AND VIRAL INFECTIONS, COMBINED WITH MYELOPOIESIS STIMULATING AGENTS” (Robin, Jean-Pierre, priority 2019, dated 2021).
# Columns and labels:
# Assay type in all cases: cell-based, human
# [1] = test system: K562 cell line; assay: Testing on K562 leukemia cell line (MTT cytotoxicity); details: K562 cells, 72 h incubation, preliminary screening, read-out: K562 (CML) IC50
# Protocol: (§1) Retinoates of harringtonines described in this invention were tested on K562 cell line which is derived from the pleural effusion of a person with chronic myelogenous leukemia (CML, bcr-abl positive) in terminal blast crises (Lozzio and Lozzio, Blood, 1975, p321). The cell line was purchased from ATCC (American Tissue Culture Collection) and grown in RPMI medium supplemented with 10% heat-inactivated fetal calf serum, 2 mmol/L glutamine, […] penicillin and […] streptomycin. All tested products were initially dissolved in 2N HCl (pH=2) (alkaloid base) or in aqueous solvent (salt) or in DMSO (retinoids), supplemented with ultrasound treatment during 1 h. Working concentrations were made by dilution in culture medium (pH 7). Cells in exponential growth phase were placed into 96-microwell plates in concentration 3x10^4/mL (total volume 200 µL/well) and incubated with drugs for 72 h at 37° C. in 5% CO2 humidified atmosphere. Following incubation, 28 µL of MTT 3-(4,5 dimethylthiazol-2-yl)-2,5 tetrazolium bromide] dye solution (Sigma, St. Louis, Mo.) was added to each well. During the following 6 h of incubation at 37° C., the purple formazan product was formed by conversion of the yellow MTT salt in the mitochondria of the viable cells. The resulting precipitate was dissolved in DMSO and the amount of converted MTT was quantified in an ELISA reader (MR 5000, Dynatech). Each product was tested in triplicate (3x8 wells). Every test contained at least one plate with HHT as control, added in the same concentration as the tested products.
# [2] = test system: HL-60 cell line; assay: Testing on HL-60 leukemia cell line (MTT cytotoxicity); details: HL-60 cells, medium with 20% fetal bovine serum, preliminary screening, read-out: HL60 (APL) IC50
# Protocol: as §1
# Retinoates of harringtonines described in this invention were tested on HL-60 cell line, derived from acute promyelocytic leukemia (APL) cells. HL-60 is a promyelocytic cell line derived by S.J. Collins, et al. (Proc. Natl. Acad. Sci. USA 1978 p2458). Peripheral blood leukocytes were obtained by leukopheresis from a person with APL (Gallagher R, et al. Blood 1978, p713) The cell line was purchased from ATCC (American Tissue Culture Collection) and the base growth medium was also completed with fetal bovine serum but at a final concentration of 20%, otherwise the same method than the one of example 10 was used.
# Preliminary screening using this tumor cell lines are gathered in table 1.
# [3] = test system: MDA-MB-468; assay: Testing on breast cancer cell lines, sulforhodamine B (SRB) cell viability assay; details: MDA-MB-468 breast cancer cells, preliminary screening, read-out: M DA-MB-468 (BC) IC50
# Protocol: Operating Procedure were performed as described in the recent paper of Yakhni et al [Yakhni AM J CANCER RES 2019; 9(5) in press "Homoharringtonine, on approved anti-leukemia drug, suppresses triple negative breast cancer growth through a rapid reduction of anti-apoptotic protein abundance"]
# The cell lines used in this study were MDA-MB-231 (ATCC® HTB-26™), MDA-MB-468 (ATCC® HTB-132™), MDA-MB-157 (ATCC® HTB-24™) and CAL-51. Those lines were chosen to represent the BRCA1/2 non-mutated TNBC transcriptomic subtypes, currently most in need of efficacious treatment due to lower sensibility of BRCA1 wild-type TNBC to the DNA-damaging chemotherapy (Masuda et al., Clin Cancer Res. 2013, p5533; Jiang et al., PLoS Med. 2016, pe1002193; Park et al. ESMO Open. 2018, pe000357). CAL-51 line represents the mesenchymal transcriptomic subtype whereas MDA-MB-157 and MDA-MB-231 represent the mesenchymal stem-like subtype (Lehmann et al. J Clin Invest. 2011, p2750). MDA-MB-468 was used as a model of aggressive, PTEN-negative TNBC, with hyperactivated EGFR signaling pathway due to EGFR amplification (Filmus et al., Biochem Biophys Res Commun. 1985, p898). MDA-MB-468 transcriptome classifies it into the basal-like 1 subtype (49). The MDA lines were purchased from the American Type Culture Collection (ATCC, Manassas, VA, USA). The CAL-51 was kindly provided by Dr Gerard Milano, from the Centre Antoine Lacassagne, Nice, France, where the line has been established (Gioanni et al., Br J Cancer 1990, p8). After initial expansion, the cell line stock vials were conserved, in liquid nitrogen, at the Biological Resource Center of Jean Perrin Comprehensive Cancer Center (biobank ID BB-0033-00075, Clermont-Ferrand, France). The MDA cell lines were cultured in the Leibovitz L-15 medium, whereas CAL-51 line was maintained in DMEM (both media from Invitrogen Life Technologies, Carlsbad, CA, USA). The media were supplemented with 10% heat-inactivated fetal bovine serum and […] gentamicin. CAL-51 line was kept at 37°C, in a humidified atmosphere with 5% CO2; the MDA lines were kept under the same conditions, however, without CO2, in a free gas exchange with atmospheric air. All cell lines were maintained in monolayer culture, in the sub-confluent status, with no more 30 passages of the cells thawed from the stock vial.
# Homoharringtonine was supplied by LeukePharma Inc. (Houston, TX, USA) as water-soluble, crystalline tartaric acid salt. Initial stock solution of HHT-tartrate was prepared at 10 mM in sterile deionized water, aliquoted and kept at -80°C. For each experiment, a fresh HHT solution was prepared by dissolving the HHT stock in phosphate-buffered saline (PBS, GIBCO™, Invitrogen, Cergy-Pontoise, France).
# Cell viability was assessed using the sulforhodamine B (SRB) assay (Sigma-Aldrich, St Louis, MO, USA) according to the method described by Vichai and Kirtikara (Nat Protoc. 2006, p1112). Cells were seeded in 96-well plates, at 5x10^3 or 1x10^3 cells/well (the MDA cell lines and CAL-51, respectively), left overnight to adhere and then treated with growing concentrations of HHT for 24h, 48h or 72h. After incubation with the drug, cells were washed twice with PBS and left for 72 h in the corresponding complete culture medium. Then the cells were fixed with trichloroacetic acid (final concentration 10%) at 4°C for 1 h, followed with plate washing with water five times, air drying and staining with 0.4% SRB dissolved in 1% acetic acid, at room temperature, for 30 min. The plates were subsequently washed four times with 1% acetic acid to remove unbound stain. To solubilize the protein-bound dye, 10 mM Tris base solution was added to each well. The cell viability, estimated through the present protein biomass, was determined by measuring optical density of the dye, using a spectrophotometer at wavelength of 540 nm (BMG Labtech, Ortenberg, Germany).
# Preliminary screening using these tumor cell lines are gathered in table 1.
Molecule,IC50 [1],IC50 [2],IC50 [3]
"CC(=Cc1ccc(C(=O)O)cc1)c1ccc2c(c1)C(C)(C)CCC2(C)C.COC(=O)CC(O)(CCCC(C)(C)O)C(=O)OC1C(OC)=CC23CCCN2CCc2cc4c(cc2C13)OCO4 (stereo not drawn) [Example 13, homoharringtonine arotinoate]",< 50 nM,,
"COC(=O)CC(O)(CCCC(C)(C)O)C(=O)O[C@@H]1C(OC)=C[C@]23CCCN2CCc2cc4c(cc2[C@H]13)OCO4.Cc1ccc(C2=CCC(C)(C)c3ccc(C#Cc4ccc(C(=O)O)cc4)cc32)cc1 (stereo partly drawn) [Example 16, Butanedioic acid, 2-hydroxy-2-(4-hydroxy-4-methylpentyl)-, 1-[(1S,3aR,14bS)-1,5,6,8,9,14b-hexahydro-2-methoxy-4H-cyclopenta[a][1,3]dioxolo[4,5-h]pyrrolo[2,1-b][3]benzazepin-1-yl]4-methyl ester, 4-[[5,6-dihydro-5,5-dimethyl-8-(4-methylphenyl)-2-naphthalenyl]ethynyl]benzoate]",< 50 nM,< 100 nM,
"CC1=C(/C=C/C(C)=C/C=C/C(C)=C/C(=O)O)C(C)(C)CCC1.COC(=O)C[C@@]1(C(=O)O[C@@H]2C(OC)=C[C@]34CCCN3CCc3cc5c(cc3[C@H]24)OCO5)CCCC(C)(C)O1 (relative stereo) [Example 18, Anhydrohomoharringtonine all-trans-retinoate]",< 50 nM,< 100 nM,< 50 nM
OP5215 all-trans-retinoate [Example 24],< 50 nM,< 100 nM,
"CC1(C)CCC(C)(C)c2cc(NC(=O)c3ccc(C(=O)O)cc3)ccc21.COC(=O)CC(O)(CCCC(C)(C)O)C(=O)OC1C(OC)=CC23CCCN2CCc2cc4c(cc2C13)OCO4 (stereo not drawn) [Example 5, homoharringtonine tamibarotenoate]",< 20 nM,< 50 nM,< 20 nM
"CC1(C)CCC(C)(C)c2cc(C(=O)Nc3ccc(C(=O)O)cc3)ccc21.COC(=O)C[C@](O)(CCCC(C)(C)O)C(=O)O[C@@H]1C(OC)=C[C@]23CCCN2CCc2cc4c(cc2[C@H]13)OCO4 [Example 23, homoharringtonine Am 580 salt]",< 50 nM,< 100 nM,< 50 nM
"COC(=O)CC(O)(CCCC(C)(C)O)C(=O)O[C@@H]1C(OC)=C[C@]23CCCN2CCc2cc4c(cc2[C@H]13)OCO4.O=C(O)c1ccc2cc(-c3ccc(O)c(C45CC6CC(CC(C6)C4)C5)c3)ccc2c1 (stereo partly drawn) [Example 11, Butanedioic acid, 2-hydroxy-2-(4-hydroxy-4-methylpentyl)-, 1-[(1S,3aR,14bS)-1,5,6,8,9,14b-hexahydro-2-methoxy-4H-cyclopenta[a][1,3]dioxolo[4,5-h]pyrrolo[2,1-b][3]benzazepin-1-yl]4-methyl ester, 6-[3-(1-adamantyl)-4-hydroxyphenyl]-2-naphtalenecarboxylate]",< 50 nM,< 100 nM,< 50 nM
"COC(=O)CC(O)(CCCC(C)(C)O)C(=O)OC1C(OC)=CC23CCCN2CCc2cc4c(cc2C13)OCO4.O=C(O)C=Cc1ccc(-c2ccc(O)c(C34CC5CC(CC(C5)C3)C4)c2)cc1 (stereo not drawn) [Example 6, homoharringtonine ""adarotenoate""]",< 50 nM,< 100 nM,
"COC(=O)CC(O)(CCCC(C)(C)O)C(=O)OC1C(OC)=CC23CCCN2CCc2cc4c(cc2C13)OCO4.COc1cc(C)c(C=CC(C)=CC=CC(C)=CC(=O)O)c(C)c1C (stereo not drawn) [Example 4, homoharringtonine ""acitretinoate""]",< 50 nM,< 100 nM,
"CC1=C(/C=C/C(C)=C/C=C/C(C)=C/C(=O)O)C(C)(C)CCC1.COC(=O)C[C@](O)(CCCC(C)(C)O)C(=O)O[C@@H]1C(OC)=C[C@]23CCCN2CCc2cc4c(cc2[C@H]13)OCO4 (relative stereo) [Example 1, homoharringtonine all-trans-retinoate]",< 50 nM,< 100 nM,< 50 nM
OP5215 bexarotenoate [Example 29],< 10 nM,< 20 nM,< 10 nM
"COC(=O)CC(O)(CCC(C)(C)O)C(=O)OC1C(OC)=CC23CCCN2CCc2cc4c(cc2C13)OCO4.COc1cc(C)c(C=CC(C)=CC=CC(C)=CC(=O)O)c(C)c1C (stereo not drawn) [Example 17, harringtonine acitretinate]",< 50 nM,< 100 nM,
"COC(=O)C[C@](O)(CCC(C)(C)O)C(=O)O[C@@H]1C(OC)=C[C@]23CCCN2CCc2cc4c(cc2[C@H]13)OCO4.COc1ccc(-c2ccc3cc(C(=O)O)ccc3c2)cc1C12CC3CC(CC(C3)C1)C2 [Example 9, harringtonine ""adapalenoate""]",< 100 nM,,
"CC(C=CC1=C(C)CCCC1(C)C)=CC=CC(C)=CC(=O)O.COC(=O)CC(O)(CCC(C)(C)O)C(=O)OC1C(OC)=CC23CCCN2CCc2cc4c(cc2C13)OCO4 (stereo not drawn) [Example 2, harringtonine all-trans-retinoate]",< 100 nM,> 100 nM,
"CC(=Cc1ccc(C(=O)O)cc1)c1ccc2c(c1)C(C)(C)CCC2(C)C.COC(=O)CC(O)(CCC(C)(C)O)C(=O)OC1C(OC)=CC23CCCN2CCc2cc4c(cc2C13)OCO4 (stereo not drawn) [Example 14, harringtonine arotinoate]",< 100 nM,,
"COC(=O)CC1(C(=O)OC2C(OC)=CC34CCCN3CCc3cc5c(cc3C24)OCO5)CCCC(C)(C)O1.COc1cc(C)c(C=CC(C)=CC=CC(C)=CC(=O)O)c(C)c1C (stereo not drawn) [Example 19, anhydrohomoharringtonine ""acitretinoate""]",> 100 nM,,> 100 nM
"CC(C=CC1=C(C)CCCC1(C)C)=CC=CC(C)=CC(=O)O.COC(=O)CC(O)(CCCC(C)(C)O)C(=O)OC1C(OC)=CC23CCCN2CCc2cc4c(cc2C13)OCO4 (stereo not drawn) [Example 3, homoharringtonine 13-cis-retinoate]",< 50 nM,,
